# Where two headings read alike, the source gives them in different places.
# Key:
# [1] = system: ovariectomized (OVX) female rats; settings: for Urine total pyridinoline/deoxypyridoline crosslinks, change from base line at 30 days: started one day after OVX, 30 days after OVX; for Trabecular BMD mg/cm^2: 3 months treatment, tibial trabecular bone
# Experimental: (§1) High bone turnover was induced to 2-4 months old female rats by ovariectomy (OVX). Treatment with ospemifene was started at different time points after OVX: 1 day, 1, 2, and 3 months after OVX. Bone resorption was evaluated in short-term by bone specific TRAP5b, which is a […] secreted specifically by osteoclasts, and later by pyridinoline/deoxypyridinoline cross links, which are degradation products of bone collagen and excreted in the urine. Finally, during autopsy, usually after 3 months treatment, trabecular bone mineral density was measured.
# Female rats, age about 4 months, were ovariectomized. Treatment with vehicle or ospemifene was started at different periods after OVX (from one day to 3 months). The ospemifene doses were 5, 10 or 25 mg/kg and the treatment period was 3 months. Evaluation of the bone occurred by bone mineral density measurement of tibial trabecular bone after the treatment and in some groups also by bone collagen degradation products excreted in the urine.
# [2] = system: ovariectomized (OVX) female rats; settings: female rats 2 months old, ospemifene 10 mg/kg, change from baseline, n = 6
# Experimental: as §1
# postmenopausal women = postmenopausal women with high bone marker levels at baseline, daily doses 60 mg and 90 mg, 12 weeks
# Experimental: In the clinical trials, bone turnover was evaluated by measuring the levels of bone formation markers in serum and bone resorption markers in urine. Both bone resorption markers e.g. amino terminal telopeptide of type I collagen (U-NTX) and carboxy terminal telopeptide of type I collagen (U-CTX) and formation markers e.g. amino terminal propeptide of type I procollagen (S-PINP) and carboxy terminal propeptide of type I procollagen (S-PICP) are increased in menopause, indicating high bone turnover.
# Most of the women had normal bone marker levels at baseline. […] The upper limit of normal range in women was 84 μg/l for S-PINP, 65 nmol/mmol Crea for U-NTX, 170 μg/l for S-PICP and 680 μg/mmol Crea for U-CTX.
compound,measurement,setting,value
OCCOc1ccc(/C(=C(/CCCl)c2ccccc2)c2ccccc2)cc1 [Ospemifene],"Urine total pyridinoline/deoxypyridoline crosslinks, change from base line at 30 days",[1]; 5 mg/kg daily,55 ± 16
same,Trabecular BMD mg/cm^2,"[1]; 5 mg/kg, treatment started 1 day after OVX, n = 20",374 ± 21 mg/cm^2
same,Trabecular BMD mg/cm^2,"[1]; 10 mg/kg, treatment started 1 month after OVX, n = 8",138 ± 24 mg/cm^2
same,Trabecular BMD mg/cm^2,"[1]; 10 mg/kg, treatment started 2 months after OVX, n = 8",78 ± 14 mg/cm^2
same,Trabecular BMD mg/cm^2,"[1]; 10 mg/kg, treatment started 3 months after OVX, n = 8",78 ± 17 mg/cm^2
same,"Urine total pyridinoline/deoxypyridoline crosslinks, change from base line at 30 days",[1]; 25 mg/kg daily,33 ± 20
same,Trabecular BMD mg/cm^2,"[1]; 25 mg/kg, treatment started 1 day after OVX, n = 20",392 ± 15 mg/cm^2
same,"Excretion of crosslinks, resorption marker (in words)","[1]; first month after OVX, high bone turnover",significantly decreases the excretion of crosslinks
same,Effect on OVX-induced bone loss (in words),"[1]; treatment started 1 month after OVX, bone turnover high",significant beneficial bone effect
same,Effect on OVX-induced bone loss (in words),"[1]; treatment started 2 months after OVX, bone turnover markedly decreased",modest beneficial bone effect
same,Effect on OVX-induced bone loss (in words),"[1]; treatment started 3 months after OVX, bone turnover low",almost lost the benefial bone effect
same,Effect on OVX-induced bone loss (in words),"[1]; treatment started 1 day after OVX, bone turnover very high",able to prevent almost completely the OVX-induced bone loss
same,Change of TRAP5b activity in serum (%) 2 days after OVX,[2],−23.3 ± 5.8%
same,"Change in bone formation and resorption markers (S-PINP, S-PICP, U-CTX, U-NTX) (in words)",postmenopausal women,large decrease both in formation and resorption bone markers
